Data: article PMC6977516, “An assessment of the interaction for three Chrysanthemum indicum flavonoids and α‐amylase by surface plasmon resonance” (Food Science & Nutrition, 2019)
Where two headings read alike, the source gives them in different places. Marks after values point to notes of the source that are not given here.

What was measured:
α-amylase [1] = molecular target: T1, α-amylase (Bacillus subtilis, UniProt P00691); assay: SPR: effect of pH and salt on the interaction between flavonoids and α-amylase; format: binding; details: flavonoid 200 μM; for optimal CaCl2 concentration for binding with α-amylase: CaCl2 0.04-0.2 M; for optimal MgCl2 concentration for binding with α-amylase: MgCl2 0.02-0.25 M
T1 construct: purchased Shanghai Ryon Biological Technology Co. Ltd
Protocol: The effect of pH on the interaction between three flavonoids and α‐amylase was carried out within the pH range (3–9) based on the method described in the above experiment. As is known to all, metal ions play a crucial role in maintaining normal physiological function of the α‐amylase. Moreover, salt is also widely used in food industry. To evaluate whether KCl, MgCl2, and CaCl2 can interfere with the interaction between flavonoids and α‐amylase, a series of 200 μM flavonoids with a various concentrations of KCl (0.02–0.3 M), MgCl2 (0.02–0.25 M), or CaCl2 (0.04–0.2 M) solutions were flowed over the chip surface modified with α‐amylase, respectively.

α-amylase [2] = molecular target: T1, α-amylase; assay: Inhibition kinetics of α-amylase by Lineweaver-Burk plots; format: biochemical; details: for Inhibitory type: Lineweaver-Burk plots, starch 0.25-1.25 mg/ml
Protocol: To further explore the inhibitory type of three flavonoids on α‐amylase, kinetic analysis was carried out by using Lineweaver–Burk plots. Starch was used as substrate, and the inhibition kinetics of α‐amylase was evaluated by varying four different concentrations (0.25, 0.50, 1.00, and 1.25 mg/ml) of starch in the absence or presence of three flavonoids. The Lineweaver–Burk plots of the three flavonoids can be obtained from the double‐reciprocal plots between 1/[S] (starch concentration) and 1/[V] (reaction rate). Besides, different concentrations of flavonoids (0, 5, and 10 μM) were used and the three Lineweaver––Burk plots for each flavonoid can be obtained. The Ki (inhibition constant) value was obtained from the least‐squares regression line of the slopes of Lineweaver–Burk plots versus the corresponding flavonoid concentrations [I] (Kandra, Gyémánt, Zajácz, & Batta, 2004; Yang et al., 2014). The formula is(3) slope=Km/Vmax1+[I]/Ki Ki = intercept of Equation (3) on x axis (Yang et al., 2014)

α-amylase [3] = molecular target: T1, α-amylase; assay: SPR binding assay of flavonoids to immobilized α-amylase; details: for kon: pH 6, read-out: Ka (association rate constant); for koff: pH 6, read-out: Kd (dissociation rate constant) × 10^–3
Protocol: A commercial BI‐2000 SPR instrument (Biosensing Instrument Inc.) was used for all SPR experiments in this study. The bare Au sensor chip was obtained from Biosensing Instrument Inc. The preparation of Au sensor chip can be referred to our previous published paper (Liu et al., 2014). A flow delivery system incorporated in the BI‐SPR platform pumped samples onto the SPR sensor chip at a flow rate of 10 μl/min. The 0.01 M PBS (pH = 6.0) buffer was used as the running buffer. The BI‐SPR 2000 control software (version 2.2.0.) was used to perform instrument operation and data processing. The Varioskan Flash (Multiskan GO 1510, Thermo Fisher Scientific) was used for the α‐amylase inhibitory activity and DPPH radical assays.
Binding assay of three flavonoids to α‐amylase was carried out using the SPR sensor. The immobilization of α‐amylase on the chip surface was performed using a standard amine coupling procedure as described previously (Liu, Luo, Li, She, & Gao, 2017). […] After the stable baseline was obtained, different concentrations of flavonoids (50–800 μM) were injected over the chip surface coated with α‐amylase, respectively. The SPR angle was monitored until the baseline stabilization. To enable reuse of the SPR chip, the chip surface could be regenerated using 2 mM NaOH after each measurement. Regeneration parameters were based on the strength of interaction between the analyte and α‐amylase. The chip surface was rinsed by PBS between each step. All the experiments were repeated three times, and kinetic parameters (ka, kd) were deduced by nonlinear fitting of the primary sensorgram data based on the 1:1 Langmuir‐binding model using the BI‐SPR 2000 control software (version 2.2.0.). The model has been widely used in protein–ligand binding analysis and can be calculated through the following formula (Gombau et al., 2019; Islam, Shen, Gurgel, Rojas, & Carbonell, 2014; Lee, Jeong, Jones, & Kim, 2011):(1) dR/dt=kaCRmax-R-kdR where R is the SPR signal at time t, and C is the concentration of the analyte. R max is the maximum analyte binding capacity in SPR signal. ka is the association rate constant and kd is the dissociation rate constant.

[4] = DPPH radical assay without or with α-amylase; details: mean ± RSD (n = 3); for Inhibition (%) of antioxidant activity by binding to α-amylase: (add α-amylase IC50 − not add α-amylase IC50)/not add α-amylase IC50
Protocol: The DPPH assay was performed to assess effect of α‐amylase on antioxidant activity of three flavonoids as following procedure (Kim et al., 2014). 2 mM DPPH solution was prepared by dissolving 0.0787 g of DPPH in 100 ml of anhydrous ethanol and stored at −20°C. α‐Amylase (300 μM) and three flavonoids (2.5–125 μM) were prepared with PBS (pH = 6.0) and ethanol, respectively. Samples were prepared by mixing flavonoids solution (without or with 10 μl α‐amylase), 100 μl of DPPH, and anhydrous ethanol. Then, samples were incubated for 10 min at room temperature. Absorbance at 517 nm was measured in the spectrophotometer. DPPH radical scavenging activity was calculated as follows (Liu et al., 2017):(4) DPPHradicalscavengingactivity(%)=1-Ai-Aj/Ac×100% in which AC is the absorbance of the DPPH (100 μl DPPH and 100 μl ethanol), Ai is the absorbance of the DPPH and sample (100 μl DPPH, 50 μl flavonoids, and 50 μl ethanol, or 100 μl DPPH, 50 μl flavonoids, 10 μl α‐amylase, and 40 μl ethano1), and Aj is the absorbance of the blank sample (50 μl flavonoids and 150 μl ethanol). All experiments were carried out in triplicate, and the results were expressed as mean ± RSD. IC50 values were obtained based on plotting the percentage of DPPH radical scavenging activity against the flavonoids concentration.

[5] = with 10 μl α-amylase (300 μM), read-out: Add α-amylase IC50 (DPPH radical scavenging)
[6] = without α-amylase, read-out: Not add α-amylase IC50 (DPPH radical scavenging)

T1 sequence (P00691 42-659): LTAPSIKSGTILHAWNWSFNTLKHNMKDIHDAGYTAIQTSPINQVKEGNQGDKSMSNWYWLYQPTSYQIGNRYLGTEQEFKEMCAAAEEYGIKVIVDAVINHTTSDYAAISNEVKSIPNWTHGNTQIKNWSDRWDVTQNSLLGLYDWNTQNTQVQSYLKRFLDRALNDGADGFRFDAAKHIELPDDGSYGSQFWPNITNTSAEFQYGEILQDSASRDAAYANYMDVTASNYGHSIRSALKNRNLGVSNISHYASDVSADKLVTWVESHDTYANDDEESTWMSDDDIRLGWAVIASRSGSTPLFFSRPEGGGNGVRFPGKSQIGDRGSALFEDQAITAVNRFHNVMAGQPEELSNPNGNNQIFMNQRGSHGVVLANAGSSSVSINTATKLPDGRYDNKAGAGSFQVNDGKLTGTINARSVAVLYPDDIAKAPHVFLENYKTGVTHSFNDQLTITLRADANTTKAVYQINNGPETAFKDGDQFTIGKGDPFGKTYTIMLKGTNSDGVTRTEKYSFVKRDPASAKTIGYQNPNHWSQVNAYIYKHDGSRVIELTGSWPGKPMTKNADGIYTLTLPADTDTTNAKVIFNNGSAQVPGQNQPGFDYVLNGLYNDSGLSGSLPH

SMILES | optimal CaCl2 concentration for binding with α-amylase (α-amylase [1]) | optimal MgCl2 concentration for binding with α-amylase (α-amylase [1]) | Ki (α-amylase [2]) | Inhibitory type (α-amylase [2]) | Kd (α-amylase [3]) | kon (α-amylase [3]) | koff (α-amylase [3]) | IC50 [4, 5] | IC50 [4, 6] | Inhibition (%) of antioxidant activity by binding to α-amylase [4] | Ki (α-amylase [2]; slopes of Lineweaver-Burk plots vs flavonoid concentration (0, 5, 10 μM), starch substrate, read-out: Ki) | Kd (α-amylase [3]; SPR, 1:1 model, pH 6.0, mean ± RSD (n = 3), read-out: KD (equilibrium dissociation constant))
COc1ccc(-c2cc(=O)c3c(O)cc(O)cc3o2)cc1 [Acacetin, acacetin] | 0.100 M | 0.120 M | 39.7 µM | Noncompetitive | 2920 ± 200 µM | 2.76 ± 6 M⁻¹ s⁻¹ | 0.008 ± 0.00015 s⁻¹ | 77.8 µM | 61.3 µM | – | – | –
COc1ccc(-c2cc(=O)c3c(O)cc(O[C@@H]4O[C@H](CO[C@@H]5O[C@@H](C)[C@H](O)[C@@H](O)[C@H]5O)[C@@H](O)[C@H](O)[C@H]4O)cc3o2)cc1 [Buddleoside] | 0.100 M | 0.120 M | 43.5 µM | Noncompetitive | 3300 ± 80 µM | 2.54 ± 0.2 M⁻¹ s⁻¹ | 0.0083 ± 0.00015 s⁻¹ | 79.13 ± 0.012 µM | 65.05 ± 0.02 µM | 21.65 ± 0.04^a % | – | –
O=c1cc(-c2ccc(O)c(O)c2)oc2cc(O)cc(O)c12 [Luteolin, luteolin] | 0.120 M | 0.150 M | – | Noncompetitive | – | 4.12 ± 0.1 M⁻¹ s⁻¹ | 0.00808 ± 0.00011 s⁻¹ | 75.2 µM | 50.1 µM | 49.93 ± 0.037^c % | 26.8 µM | 1970 ± 120 µM
